# According to patent EP2348131A1, “Low levels of cytidine deaminase as a marker for genetic predisposition to develop cancer” (Institut Curie, priority 2010, dated 2011):
# Assays:
# BS cells = assay: Sister chromatid exchange assay in BS cells cultured with deoxynucleosides; format: cell-based, human; settings: BS cells (BS-GFP), 25 µM dU or T in culture medium, 2 x 48 h
# Experimental: The BS SV40-transformed fibroblast cell line GM08505B was cultured as previously described (Dutertre S et al., Oncogene 19, 2731-8, 2000). BS-GFP-BLM cells were obtained by transfecting BS GM08505B cells with an empty EGFP-C1 vector (Clontech, Mountain View, CA), or a EGFP-C1 vector containing the full length BLM cDNA (Eladad et al., Hum Mol Genet 14, 1351-65, 2005), respectively, using JetPEI reagent (Ozyme). After 48 hr, selection with 800 to 1600 µg/ml of G418 (Invitrogen) was applied. Individual colonies were isolated and maintained in DMEM supplemented with 800 µg/ml G418.
# All cell lines were cultured in DMEM with 10% fetal calf serum (PAN laboratories) either not dialyzed (Lot P282710) or dialyzed (Lot P5940309) for nucleoside complementation experiments and dNTP assays. […]
# After treatment, cells were transferred to slides and cultured in the presence of 10 µM 5-bromodeoxyuridine (Sigma) at 37°C, under an atmosphere containing 5% CO2. After 40 hours, Colchicine (Sigma) was added to a final concentration of 0.1 µg/ ml for 1 hour. Cells were incubated in hypotonic solution (1:6 (vol/vol) FCS-distilled water) and fixed with 3:1 (vol/vol) methanol-acetic acid. […] Metaphases were captured with a SONY DXC 930 P camera and SCEs or chromosomal aberrations were analyzed.
# [1] = test system: BLM-complemented BS cells; assay: Sister chromatid exchange assay in BLM-complemented BS cells; format: cell-based, human; settings: BLM-complemented BS cells (BS-GFP-BLM), 25 mM dU or T in culture medium, 2 x 48 h
# Experimental: HeLa cells were used, as previously described (Dutertre S et al., Oncogene 19, 2731-8, 2000). HEK293 cells were cultured as HeLa cells. HeLaV cells and HeLashBLM cells, HEK293V and HEK293shBLM were obtained by transfecting HeLa and HEK cells with an empty pSM2 vector or a pSM2 vector encoding a short hairpin RNA sequence directed against BLM (Open Biosystems, clone V2HS-89234), respectively, using JetPEI reagent (Ozyme) according to the manufacturer's instructions. After 48 hours, selection with 1 to 5 µg/ ml puromycin (Invivogen) was applied for HeLa cells and with 7 to12 µg/ml puromycin for HEK cells. Individual colonies were isolated and maintained in growth medium containing 0.5 µg/ ml puromycin for Hela cells or 10µg/ml puromycin for HEK cells. For siRNAs transient transfection assays, 3-4 x 10^5 cells were seeded in 3 ml of medium in each well of a six-well plate. […]
# After treatment, cells were transferred to slides and cultured in the presence of 10 µM 5-bromodeoxyuridine (Sigma) at 37°C, under an atmosphere containing 5% CO2. […] Metaphases were captured with a SONY DXC 930 P camera and SCEs or chromosomal aberrations were analyzed.
SMILES,SCEs frequency (BS cells),SCEs frequency [1]
"Cc1cn([C@H]2C[C@H](O)[C@@H](CO)O2)c(=O)[nH]c1=O [T, thymidine]",significant decrease,did not affect
"O=c1ccn([C@H]2C[C@H](O)[C@@H](CO)O2)c(=O)[nH]1 [dU, deoxyuridine]",significant decrease,did not affect
